Experiments:
dengue virus type 2 = assay: Antiviral activity against DENV2 New Guinea C strain infected in human Huh7 cells assessed as reduction in viral infection measured after 48 hrs post infection by renilla luciferase assay relative to control; assay type: functional, organism-based; conditions: Huh-7, 48 h
[1] = Cytotoxicity against DENV infected human Huh-7 cells assessed as reduction in cell viability by alamar blue assay; assay type: cell-based; conditions: DENV-infected Huh-7 cells
[2] = system: Venezuelan equine encephalitis virus; assay: Antiviral activity against Venezuelan equine encephalitis virus TC-83 strain infected in human U-87 MG cells assessed as reduction in viral infection measured after 18 hrs post infection by Nano luciferase assay relative to control; assay type: functional, organism-based; conditions: TC-83, U-87 MG
[3] = Cytotoxicity against Venezuelan equine encephalitis virus TC-83 strain infected human U-87 MG cells assessed as reduction in cell viability by alamar blue assay; assay type: cell-based, U-87MG ATCC

SMILES	EC50 (dengue virus type 2) [µM]	CC50 [1] [µM]	EC50 [2] [µM]	CC50 [3] [µM]
C#Cc1cccc(Nc2ccnc3cc(OC)c(OC)cc23)c1	8.6	> 10	7.5	> 10
C#Cc1cccc(Nc2ncnc3cc(OC)c(OC)cc23)c1	6.5	> 10	10	> 10
C#Cc1cccc(Nc2c(C#N)cnc3cc(OC)c(OC)cc23)c1	3	> 10	> 10	> 10
COc1cc(Nc2ncnc3ccc(C(F)(F)F)cc23)cc(OC)c1OC	> 10	> 10	> 10	> 10
COc1cccc(Nc2ccnc3ccc(C(F)(F)F)cc23)c1	0.82	> 10	5.5	> 10
N#Cc1ccccc1Nc1ccnc2ccc(C(F)(F)F)cc12	> 10	> 10	> 10	> 10
C#Cc1cccc(Nc2ccnc3ccc(OC)cc23)c1	4.3	> 10	> 10	> 10
FC(F)(F)c1ccc2nccc(Nc3ccc(Br)cc3)c2c1	4.1	> 10	6.3	> 10
COc1cc(Nc2ccnc3ccc(C(F)(F)F)cc23)cc(OC)c1	1.3	> 10	2.1	> 10
COc1ccc(Nc2ccnc3ccc(C(F)(F)F)cc23)cc1OC	8.9	> 10	> 10	> 10
C#Cc1cccc(Nc2ccnc3cc(OC)ccc23)c1	1.7	> 10	> 10	> 10
FC(F)(F)c1ccc2nccc(Nc3ccc4c(c3)OCCO4)c2c1	> 10	> 10	> 10	> 10
FC(F)(F)c1ccc2nccc(Nc3ccc4c(c3)OCO4)c2c1	4.1	> 10	1.5	> 10
COc1ccccc1Nc1ccnc2ccc(C(F)(F)F)cc12	> 10	> 10	2.5	> 10
FC(F)(F)c1ccc2nccc(Nc3ccc(Cl)c(Cl)c3)c2c1	3.3	> 10	0.5	> 10
C#Cc1cccc(Nc2ncnc3cc(OC)c(OC)cc23)c1F	> 10	> 10	10	> 10
CS(=O)(=O)c1ccc(Nc2ccnc3ccc(C(F)(F)F)cc23)cc1	6.1	> 10	> 10	> 10
Fc1cc(Nc2ccnc3ccc(C(F)(F)F)cc23)cc(F)c1F	> 10	> 10	> 10	> 10
FC(F)(F)c1cccc(Nc2ccnc3ccc(C(F)(F)F)cc23)c1	5.7	> 10	4.8	> 10
CC(=O)c1cccc(Nc2ccnc3ccc(C(F)(F)F)cc23)c1	6.8	> 10	> 10	> 10
COc1cccc(Nc2ccnc3cc(OC)c(OC)cc23)c1	5.9	> 10	4.8	> 10
C#Cc1ccc(F)c(Nc2ncnc3cc(OC)c(OC)cc23)c1	9	> 10	7.8	> 10
C#Cc1cccc(Nc2ccnc3ccc(C(F)(F)F)cc23)c1	3.8	> 10	2.5	> 10
FC(F)(F)c1ccc2nccc(Nc3ccccc3Br)c2c1	> 10	> 10	> 10	> 10
FC(F)(F)c1ccc2nccc(Nc3ccc(Cl)cc3)c2c1	7.2	> 10	1.9	> 10
C#Cc1cccc(Nc2c(C#N)cnc3ccc(OC)cc23)c1	8.9	> 10	> 10	> 10
FC(F)(F)c1ccc2nccc(Nc3cccc(Cl)c3)c2c1	7.9	> 10	4.8	> 10

SMILES	EC50 (dengue virus type 2) [µM]	CC50 [1] [µM]	EC50 [2] [µM]	CC50 [3] [µM]
COc1ccc(OC)c(Nc2ccnc3ccc(C(F)(F)F)cc23)c1	0.25	> 10	1.7	> 10
C#Cc1cccc(Nc2ncnc3cc(OC)ccc23)c1	> 10	> 10	> 10	> 10
C#Cc1cc(Nc2ncnc3cc(I)ccc23)ccc1F	> 10	> 10	> 10	> 10
C#Cc1cccc(Nc2c(C#N)cnc3cc(OC)ccc23)c1	7.8	> 10	> 10	> 10
CS(=O)(=O)c1cccc(Nc2ccnc3ccc(C(F)(F)F)cc23)c1	> 10	> 10	> 10	> 10
Fc1cc(Nc2ccnc3ccc(C(F)(F)F)cc23)ccc1Cl	4.1	> 10	1.7	> 10
N#Cc1ccc(Nc2ccnc3ccc(C(F)(F)F)cc23)cc1	9.8	> 10	> 10	> 10
Fc1cc(Cl)cc(Nc2ccnc3ccc(C(F)(F)F)cc23)c1	9.3	> 10	5.8	> 10
C#Cc1cccc(Nc2ncnc3ccc(OC)cc23)c1	9.7	> 10	8	> 10
COc1ccc(Nc2ccnc3ccc(C(F)(F)F)cc23)c(OC)c1	> 10	> 10	3.4	> 10
Fc1ccc(Nc2ccnc3ccc(C(F)(F)F)cc23)cc1F	> 10	> 10	> 10	> 10
Fc1ccccc1Nc1ccnc2ccc(C(F)(F)F)cc12	> 10	> 10	> 10	> 10
COc1cc2nccc(Nc3cccc(C(C)=O)c3)c2cc1OC	4.8	> 10	1.3	> 10
Fc1cccc(Nc2ccnc3ccc(C(F)(F)F)cc23)c1	> 10	> 10	> 10	> 10
FC(F)(F)c1ccc2nccc(Nc3ccccc3Cl)c2c1	> 10	> 10	6.4	> 10
N#Cc1cccc(Nc2ccnc3ccc(C(F)(F)F)cc23)c1	> 10	> 10	2.2	> 10
FC(F)(F)c1ccc2nccc(Nc3cccc(Br)c3)c2c1	6.1	> 10	2.3	> 10
FC(F)(F)c1ccc2nccc(Nc3cccc(I)c3)c2c1	6.1	> 10	1.4	> 10
C#Cc1cc(Nc2ncnc3ccc(I)cc23)ccc1F	5	> 10	> 10	> 10
C#Cc1cc(Nc2ncnc3cc(C#N)ccc23)ccc1F	> 10	> 10	3.9	> 10
COc1ccc(Nc2ccnc3ccc(C(F)(F)F)cc23)cc1	7.7	> 10	0.88	> 10
Fc1ccc(Nc2ccnc3ccc(C(F)(F)F)cc23)cc1	> 10	> 10	> 10	> 10
COc1cc(Nc2ccnc3ccc(C(F)(F)F)cc23)cc(OC)c1OC	–	> 10	1.6	> 10
C#Cc1cc(Nc2ncnc3cc(OC)c(OC)cc23)ccc1F	7.6	> 10	0.6	> 10
COc1cc2nccc(Nc3cccc(Br)c3)c2cc1OC	9.8	> 10	4.8	> 10
C#Cc1cccc(Nc2ncnc3cc(OCCOC)c(OCCOC)cc23)c1 [ERLOTINIB]	–	–	> 20	–

Source: ChEMBL document CHEMBL5036348, “Identification and evaluation of 4-anilinoquin(az)olines as potent inhibitors of both dengue virus (DENV) and Venezuelan equine encephalitis virus (VEEV)” (Bioorg Med Chem Lett, 2021)
